Tests used:
CETP = molecular target: T1, CETP (Homo sapiens, UniProt P11597); assay: CETP inhibitory activity, BODIPY-CE fluorescence assay (CETP RP Activity Assay Kit); type: biochemical
T1 construct: purchased Roar, New York, NY, USA RB-RPAK
T1 sequence (P11597 18-493): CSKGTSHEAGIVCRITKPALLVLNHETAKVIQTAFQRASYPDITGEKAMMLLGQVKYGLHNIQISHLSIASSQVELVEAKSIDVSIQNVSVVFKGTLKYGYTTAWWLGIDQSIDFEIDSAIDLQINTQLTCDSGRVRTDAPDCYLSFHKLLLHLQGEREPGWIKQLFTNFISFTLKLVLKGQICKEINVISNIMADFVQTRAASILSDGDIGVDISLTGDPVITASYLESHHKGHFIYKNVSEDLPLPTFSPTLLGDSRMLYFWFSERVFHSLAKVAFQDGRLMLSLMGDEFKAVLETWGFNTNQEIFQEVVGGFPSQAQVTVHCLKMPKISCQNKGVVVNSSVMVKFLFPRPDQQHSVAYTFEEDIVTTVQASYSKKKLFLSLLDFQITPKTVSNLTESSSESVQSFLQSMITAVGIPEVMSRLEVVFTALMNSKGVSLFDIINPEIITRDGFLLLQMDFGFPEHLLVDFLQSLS
Description: All tested compounds were dissolved in 100% DMSO, making sure the compound was dissolved totally. The solution was vibrated hard on an oscillator for more than 30 s and then stored in a nitrogen cabinet. The stock solutions (10 mM) were diluted with DMSO for an 8-point titration (1:5 serial dilutions) in a 96-well dilution plate. […] Compounds were tested at eight concentrations, and the fluorescence intensity were measured using a fluorometer (ExEm = 465/535 nm). The IC50 was determined from a curve fit of the data with each concentration tested three times.

[1] = Metabolic stability in human liver microsomes; type: in vitro ADME; settings: 37 °C, NADPH, 0-60 min, read-out: HLM Stability (human liver microsomal intrinsic clearance)
Description: (§1) Ten μL (100 μM/L) of compound and 80 μL liver microsomes were mixture and incubated at 37 °C for 10 min, and then 10 μL NADPH regenerating system was added. Samples were obtained at 0 min, 5 min, 10 min, 20 min, 30 min and 60 min respectively, and 300 μL stop solution (cold in 4 °C, including 100 ng/mL tolbutamide and 100 ng/mL labetalol) was added to terminate the reaction. After oscillating for 10 min, the plates were centrifuged (4000 rpm) at room temperature for 20 min, and the supernatants were used for analyzation.

[2] = Metabolic stability in rat liver microsomes; type: in vitro ADME; settings: 37 °C, NADPH, 0-60 min, read-out: RLM Stability (rat liver microsomal intrinsic clearance)
Description: as §1

CYP3A4 = molecular target: T2, CYP3A4 (Homo sapiens, UniProt P08684); assay: Cytochrome P450 inhibition assay, CYP3A4; type: in vitro ADME; settings: human liver microsomes, pH 7.4, probe midazolam (2 μM), 10 μM compound, human liver microsomes 0.25 mg/mL, substrate midazolam, read-out: CYPs Direct Inhibition Mean (10 μM) 3A4
T2 construct: from tissue; host or cells: human liver microsomes
Description: (§2) Five specific probe substrates (CYP3A4, 2 μM midazolam; CYP2D6, 5 μM dextromethorphan; CYP2C9, 5 μM diclofenac; CYP1A2, 10 μM phenacetin; CYP2C19, 30 μM S-mephenytoin) were used to evaluated cytochrome P450 inhibition in human liver microsomes (0.25 mg/mL). A mixture of 20 μL specific probe substrate solution and 20 μL buffer solution (100 mM K3PO4, 33 mM MgCl2, pH = 7.4) was added compound (2 μL) and 158 μL human liver microsomes solution (0.25 mg/mL). The mixture were incubated at 37 °C for 10 min and another 10 min underwent after 20 μL NADPH solution added. Consecutively, 400 µL cold stop solution (200 ng/mL tolbutamide and 200 ng/mL labetalol in acetonitrile) was added to terminated the reaction. After the reactions were terminated, The plates were centrifuged (4000 rpm) at room temperature for 20 min, and the supernatants were analysed by LC/MS/MS.

CYP2D6 = molecular target: T3, CYP2D6 (Homo sapiens, UniProt P10635); assay: Cytochrome P450 inhibition assay, CYP2D6; type: in vitro ADME; settings: 10 μM compound, human liver microsomes 0.25 mg/mL, substrate dextromethorphan
T3 construct: from tissue; host or cells: human liver microsomes
Description: as §2

CYP2C9 = molecular target: T4, CYP2C9 (Homo sapiens, UniProt P11712); assay: Cytochrome P450 inhibition assay, CYP2C9; type: in vitro ADME; settings: human liver microsomes, pH 7.4, probe diclofenac (5 μM), 10 μM compound, human liver microsomes 0.25 mg/mL, substrate diclofenac, read-out: CYPs Direct Inhibition Mean (10 μM) 2C9
T4 construct: from tissue; host or cells: human liver microsomes
Description: as §2

CYP1A2 = molecular target: T5, CYP1A2 (Homo sapiens, UniProt P05177); assay: Cytochrome P450 inhibition assay, CYP1A2; type: in vitro ADME; settings: 10 μM compound, human liver microsomes 0.25 mg/mL, substrate phenacetin
T5 construct: from tissue; host or cells: human liver microsomes
T5 sequence (P05177 1-516): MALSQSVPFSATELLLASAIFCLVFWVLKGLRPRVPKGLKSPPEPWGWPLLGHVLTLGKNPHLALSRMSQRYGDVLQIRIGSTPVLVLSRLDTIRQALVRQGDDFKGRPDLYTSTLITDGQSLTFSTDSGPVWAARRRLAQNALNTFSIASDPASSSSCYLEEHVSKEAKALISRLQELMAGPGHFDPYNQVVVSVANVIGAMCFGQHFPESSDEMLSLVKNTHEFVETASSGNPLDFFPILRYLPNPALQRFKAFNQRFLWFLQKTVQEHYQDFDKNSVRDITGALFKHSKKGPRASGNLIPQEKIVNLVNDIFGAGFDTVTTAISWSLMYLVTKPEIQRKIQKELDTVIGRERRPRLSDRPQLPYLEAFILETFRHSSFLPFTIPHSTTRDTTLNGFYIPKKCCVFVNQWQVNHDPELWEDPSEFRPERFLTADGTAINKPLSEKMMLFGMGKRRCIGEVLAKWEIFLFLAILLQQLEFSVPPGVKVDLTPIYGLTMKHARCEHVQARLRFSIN
Description: as §2

T3 sequence (P10635 whole entry): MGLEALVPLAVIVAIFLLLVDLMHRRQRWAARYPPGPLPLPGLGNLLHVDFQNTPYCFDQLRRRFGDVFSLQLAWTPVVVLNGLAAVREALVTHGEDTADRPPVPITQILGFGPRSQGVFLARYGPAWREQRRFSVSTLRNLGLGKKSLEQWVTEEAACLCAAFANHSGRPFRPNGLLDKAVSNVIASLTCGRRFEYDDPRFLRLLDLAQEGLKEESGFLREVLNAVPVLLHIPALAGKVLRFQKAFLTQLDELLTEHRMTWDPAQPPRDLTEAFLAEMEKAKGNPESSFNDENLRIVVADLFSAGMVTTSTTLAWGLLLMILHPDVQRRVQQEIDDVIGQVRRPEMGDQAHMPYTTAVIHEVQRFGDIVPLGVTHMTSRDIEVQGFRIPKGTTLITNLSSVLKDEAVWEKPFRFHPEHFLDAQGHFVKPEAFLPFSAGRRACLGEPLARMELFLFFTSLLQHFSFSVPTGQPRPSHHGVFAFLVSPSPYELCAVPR
T2 sequence (P08684 whole entry): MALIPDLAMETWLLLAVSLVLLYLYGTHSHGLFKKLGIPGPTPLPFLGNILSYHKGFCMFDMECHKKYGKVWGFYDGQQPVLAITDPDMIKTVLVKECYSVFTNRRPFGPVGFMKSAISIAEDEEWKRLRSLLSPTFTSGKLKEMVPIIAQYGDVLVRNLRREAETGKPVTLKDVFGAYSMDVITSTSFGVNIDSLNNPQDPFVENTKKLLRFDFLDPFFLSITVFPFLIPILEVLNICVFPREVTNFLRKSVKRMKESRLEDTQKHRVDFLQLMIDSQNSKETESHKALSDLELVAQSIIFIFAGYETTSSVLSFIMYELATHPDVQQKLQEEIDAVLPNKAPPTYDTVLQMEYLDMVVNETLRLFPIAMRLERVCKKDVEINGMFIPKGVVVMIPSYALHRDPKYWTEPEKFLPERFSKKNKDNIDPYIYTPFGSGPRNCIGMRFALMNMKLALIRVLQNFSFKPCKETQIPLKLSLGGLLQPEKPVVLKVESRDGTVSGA
T4 sequence (P11712 whole entry): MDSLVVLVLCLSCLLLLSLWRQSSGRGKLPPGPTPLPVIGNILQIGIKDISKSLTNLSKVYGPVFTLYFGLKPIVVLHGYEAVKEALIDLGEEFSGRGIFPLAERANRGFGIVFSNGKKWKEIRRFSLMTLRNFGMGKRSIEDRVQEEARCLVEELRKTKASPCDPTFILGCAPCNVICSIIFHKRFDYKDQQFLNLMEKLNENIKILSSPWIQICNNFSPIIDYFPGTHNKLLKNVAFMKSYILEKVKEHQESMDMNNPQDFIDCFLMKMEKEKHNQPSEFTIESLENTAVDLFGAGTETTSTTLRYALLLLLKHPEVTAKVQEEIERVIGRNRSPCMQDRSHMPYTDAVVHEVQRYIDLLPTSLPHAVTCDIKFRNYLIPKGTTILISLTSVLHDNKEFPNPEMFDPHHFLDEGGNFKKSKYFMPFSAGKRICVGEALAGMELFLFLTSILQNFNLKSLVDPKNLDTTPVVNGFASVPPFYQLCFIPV

In the case of `COc1ccc(C(C)C)cc1C1=C(CN(Cc2cc(C(F)(F)F)cc(C(F)(F)F)c2)c2nnn(CC(=O)O)n2)CC(C)(C)CC1` [Compound 17, N-(3,5-Bis(trifluoromethyl)benzyl)-N-((2-(5-isopropyl-2-methoxyphenyl)-5,5-dimethylcyclohex-1-enyl)-methyl)-2H-tetrazol-5-amine-2-acetic acid], the “activity weaker than the reference compound (fold)” value (CETP; IC50 versus reference compound anacetrapib) is reported as 10 fold, the IC50 (CETP; read-out: IC50 (CETP inhibition)) is reported as 380 ± 80 nM and the microsomal CLint at 10 μM [1] is reported as 119 µL/min/mg. The microsomal CLint at 10 μM [2] was 146 µL/min/mg, the inhibition at 10 min, 10 µM (CYP3A4) was under 20% and the “CYPs Direct Inhibition Mean (10 μM) 2D6” value (CYP2D6) was “No inhibition”. The inhibition at 10 min, 10 µM (CYP2D6; pH 7.4, probe dextromethorphan (5 μM), read-out: CYPs Direct Inhibition Mean (10 μM) 2D6) was under 20%, the inhibition at 10 min, 10 µM (CYP2C9) was under 20% and the “CYPs Direct Inhibition Mean (10 μM) 1A2” value (CYP1A2) was “No inhibition”. The inhibition at 10 min, 10 µM (CYP1A2; pH 7.4, probe phenacetin (10 μM), read-out: CYPs Direct Inhibition Mean (10 μM) 1A2) was under 20%.
